Tested on: patients with acute gout flare (acute gouty arthritic attack)
Assay: Multicenter, randomized, double-blind, placebo-controlled dose comparison study in acute gout flare: efficacy (target joint pain)
Assay type: in vivo, human
Details: for Difference between treatment groups in mean change from baseline in target joint pain, High vs. Low / Difference between treatment groups in mean change from baseline in target joint pain, High vs. Placebo / Difference between treatment groups in mean change from baseline in target joint pain, Low vs. Placebo / Change from baseline in target joint pain, Mean / Change from baseline in target joint pain, Median / Difference between treatment groups in mean change from baseline in target joint pain score at 24 hours, High vs. Low / Difference between treatment groups in mean change from baseline in target joint pain score at 24 hours, High vs. Placebo / Difference between treatment groups in mean change from baseline in target joint pain score at 24 hours, Low vs. Placebo: LOCF, ITT
Text: A sufficient number of patients are screened to enroll and randomize 300 patients (100 patients per treatment group) who meet the criteria of the American College of Rheumatology (ACR) for acute arthritis of gout.
Efficacy assessment will be made based on patient and Investigator inputs. Patients will record pain severity and sleep interference on a study diary. The severity of pain for each joint affected by the acute gouty arthritic attack will be rated on an 11-point pain intensity numerical rating scale (PI-NRS) that ranges from 0 (“no pain”) to 10 (“worst possible pain”). […] Investigators will provide clinical assessments in the clinic at all Post-Flare Phase study visits, and at medically necessary intervening visits. For these assessments, each of the patient's joints affected by the acute gouty arthritic attack will be examined and signs and symptoms of inflammation will be rated (erythema [absent, present, or not assessable], swelling [0, “none” to 3, “severe”], and tenderness to touch [0, “none” to 3, “severe”]).
The target joint is identified during data analysis as that joint affected by the acute gout flare with the highest baseline pain score on the patient diary. Ties among maximum joint scores for an individual are resolved by random selection.
The secondary efficacy variables are assessments of magnitude of pain reduction, time to response, time to complete pain relief, and interference with sleep as recorded on patient diaries by the patient. Signs and symptoms of inflammation per Investigator's clinical assessments of the target joint are evaluated. Time to drop out (use of rescue medications) is also evaluated. Investigator global assessment of response to treatment is assessed.
Analyses will also be made on an Evaluable patient population with an Evaluable patient defined as one who, in addition to being included in the PP population, completed the randomized treatment course. The ITT population will be used for the evaluation of safety.
Statistical tests for efficacy analysis are two-tailed with an alpha significance level of 0.05.
The sensitivity to alternate definitions of response (based both on magnitude of reduction from baseline as well as time point) will be evaluated as secondary endpoints. As additional sensitivity analyses, these tests will also be repeated for the PP and Evaluable populations if the sample sizes differ from the overall ITT population by more than 10%.
Change in pain intensity, interference with sleep, time to 50% reduction in pain, and time to complete pain relief will be analyzed as continuous variables using analysis of covariance with study site, treatment group, and site by treatment interaction as independent variables for change in pain intensity and interference with sleep, with baseline score as a covariate. For the Investigator's clinical assessment of inflammation (erythema, swelling, and tenderness to touch) and Investigator's global assessment of response to treatment, the treatment groups will be compared using the Mantel-Haenszel chi-square test stratified on study site.

[1] = 24 hours post first dose, High dose 4.8 mg, N = 52
[2] = 24 hours post first dose, Low dose 1.8 mg, N = 74
[3] = 32 hours post first dose, High dose 4.8 mg, N = 52
[4] = 32 hours post first dose, Low dose 1.8 mg, N = 74
[5] = Early treatment start (within 4 hours)
[6] = Early treatment start (within 4 hours), High dose 4.8 mg
[7] = Early treatment start (within 4 hours), Low dose 1.8 mg
[8] = Hour 24, High dose 4.8 mg, n = 51
[9] = Hour 24, Low dose 1.8 mg, n = 74
[10] = Hour 32, High dose 4.8 mg, n = 51
[11] = Hour 32, Low dose 1.8 mg, n = 74
[12] = Late treatment start (after 4 hours)
[13] = Late treatment start (after 4 hours), High dose 4.8 mg
[14] = Late treatment start (after 4 hours), Low dose 1.8 mg

COc1cc2c(c(OC)c1OC)-c1ccc(OC)c(=O)cc1[C@@H](NC(C)=O)CC2 [Colchicine, (−)-N-[(7S,12aS)-1,2,3,10-tetramethoxy-9-oxo-5,6,7,9-tetrahydrobenzo[a]heptalen-7-yl]-acetamide]
Difference between treatment groups in mean change from baseline in target joint pain, High vs. Low (24 hours post first dose): 0.2
Difference between treatment groups in mean change from baseline in target joint pain, High vs. Placebo (24 hours post first dose): −1.3
Difference between treatment groups in mean change from baseline in target joint pain, Low vs. Placebo (24 hours post first dose): −1.5
Change from baseline in target joint pain, Mean [1]: −2.0
Change from baseline in target joint pain, Median [1]: −2.0
Change from baseline in target joint pain, Mean [2]: −2.2
Change from baseline in target joint pain, Median [2]: −2.0
Number (%) of responders, at least a 2-unit reduction in target joint pain score [1]: 18 (34.6) Number (%)
Number (%) of responders, at least a 2-unit reduction in target joint pain score [2]: 32 (43.2) Number (%)
Difference between treatment groups in mean change from baseline in target joint pain, High vs. Low (32 hours post first dose): 0.1
Difference between treatment groups in mean change from baseline in target joint pain, High vs. Placebo (32 hours post first dose): −1.6
Difference between treatment groups in mean change from baseline in target joint pain, Low vs. Placebo (32 hours post first dose): −1.6
Change from baseline in target joint pain, Mean [3]: −2.3
Change from baseline in target joint pain, Median [3]: −2.0
Change from baseline in target joint pain, Mean [4]: −2.4
Change from baseline in target joint pain, Median [4]: −2.5
Number (%) of responders, at least a 2-unit reduction in target joint pain score [3]: 20 (38.5) Number (%)
Number (%) of responders, at least a 2-unit reduction in target joint pain score [4]: 34 (45.9) Number (%)
Difference between treatment groups in mean change from baseline in target joint pain score at 24 hours, High vs. Low [5]: 0.2
Difference between treatment groups in mean change from baseline in target joint pain score at 24 hours, High vs. Placebo [5]: −1.3
Difference between treatment groups in mean change from baseline in target joint pain score at 24 hours, Low vs. Placebo [5]: −1.5
Change from baseline in target joint pain score at 24 hours post first dose, Mean [6]: −2.0
Change from baseline in target joint pain score at 24 hours post first dose, Median [6]: −2.0
Change from baseline in target joint pain score at 24 hours post first dose, Mean [7]: −2.2
Change from baseline in target joint pain score at 24 hours post first dose, Median [7]: −2.0
Number of responders (>=50% reduction in target joint pain score, no rescue medication) at 24 hours post first dose (High (standard) dose 4.8 mg over 6 h, N = 52, ITT): 17 (32.7) N (%)
Number (%) of patients using rescue medication up to and including the 24-hour post first dose assessment (High dose 4.8 mg, N = 52): 18 (34.6) n (%)
Patients with >=0% improvement in target joint pain score at 24 hours post first dose (High dose 4.8 mg, N = 52): 52 (100.0%)
Patients with >=10% improvement in target joint pain score at 24 hours post first dose (High dose 4.8 mg, N = 52): 32 (61.5%)
Patients with >=20% improvement in target joint pain score at 24 hours post first dose (High dose 4.8 mg, N = 52): 29 (55.8%)
Patients with >=30% improvement in target joint pain score at 24 hours post first dose (High dose 4.8 mg, N = 52): 21 (40.4%)
Patients with >=40% improvement in target joint pain score at 24 hours post first dose (High dose 4.8 mg, N = 52): 21 (40.4%)
Patients with >=50% improvement in target joint pain score at 24 hours post first dose (High dose 4.8 mg, N = 52): 19 (36.5%)
Patients with >=60% improvement in target joint pain score at 24 hours post first dose (High dose 4.8 mg, N = 52): 15 (28.8%)
Patients with >=70% improvement in target joint pain score at 24 hours post first dose (High dose 4.8 mg, N = 52): 10 (19.2%)
Patients with >=80% improvement in target joint pain score at 24 hours post first dose (High dose 4.8 mg, N = 52): 9 (17.3%)
Patients with >=90% improvement in target joint pain score at 24 hours post first dose (High dose 4.8 mg, N = 52): 6 (11.5%)
Patients with >=100% improvement in target joint pain score at 24 hours post first dose (High dose 4.8 mg, N = 52): 6 (11.5%)
Total Pain Relief (TOTPAR) based on all target joint pain scores, Mean [8]: 20.9
Total Pain Relief (TOTPAR) based on all target joint pain scores, Median [8]: 11.5
Total Pain Relief (TOTPAR) based on all target joint pain scores, Mean [9]: 30.5
Total Pain Relief (TOTPAR) based on all target joint pain scores, Median [9]: 23.0
Total Pain Relief (TOTPAR) based on all target joint pain scores, Mean [10]: 31.9
Total Pain Relief (TOTPAR) based on all target joint pain scores, Median [10]: 27.5
Total Pain Relief (TOTPAR) based on all target joint pain scores, Mean [11]: 45.5
Total Pain Relief (TOTPAR) based on all target joint pain scores, Median [11]: 34.1
Difference between treatment groups in mean change from baseline in target joint pain score at 24 hours, High vs. Low [12]: 0.1
Difference between treatment groups in mean change from baseline in target joint pain score at 24 hours, High vs. Placebo [12]: −1.6
Difference between treatment groups in mean change from baseline in target joint pain score at 24 hours, Low vs. Placebo [12]: −1.6
Change from baseline in target joint pain score at 24 hours post first dose, Mean [13]: −2.3
Change from baseline in target joint pain score at 24 hours post first dose, Median [13]: −2.0
Change from baseline in target joint pain score at 24 hours post first dose, Mean [14]: −2.4
Change from baseline in target joint pain score at 24 hours post first dose, Median [14]: −2.5

From patent US7964647B2 (Mutual Pharmaceutical Company, Inc., priority 2007, dated 2011)
